Source: the NIST ThermoML archive (doi:10.1016/j.jct.2016.08.022)

Experiment: molar heat capacity at constant pressure
Conditions: 101.33 kPa, Crystal 1, Small (less than 1 g) adiabatic calorimetry

CCC(=O)O[C@]1(C(=O)COC(C)=O)CC[C@H]2[C@@H]3C[C@H](C)C4=CC(=O)C=C[C@]4(C)[C@H]3[C@@H](O)C[C@@]21C [Methylprednisolone aceponate]
Conditions | molar heat capacity at constant pressure [J/K/mol]
181.78 K | 389.3
182.38 K | 390.4
184.68 K | 394.6
184.72 K | 394.9
186.99 K | 398.4
187.66 K | 399.4
189.31 K | 403.5
190 K | 404
190.59 K | 405.5
191.61 K | 407.4
193.51 K | 410.5
193.93 K | 410.9
196.2 K | 415.5
196.43 K | 414.4
198.49 K | 418.9
199.33 K | 420.1
200 K | 421.8
200.78 K | 422.8
202.47 K | 425.8
203.07 K | 427.7
205.36 K | 432.9
205.78 K | 432.4
207.65 K | 435.8
209.13 K | 438
209.94 K | 439.7
210 K | 439.9
212.24 K | 444.3
212.49 K | 444.8
214.54 K | 448.4
215.85 K | 450.6
217 K | 451.2
219.13 K | 456
219.21 K | 456.5
220 K | 458.2
221.43 K | 460.8
222.56 K | 463.6
223.73 K | 465.6
226.03 K | 469.3
228.32 K | 473.5
230 K | 476.5
230.63 K | 477.8
232.91 K | 481.1
235.22 K | 485.8
237.52 K | 490.6
239.83 K | 495.3
240 K | 494.9
242.15 K | 498.7
244.46 K | 503.6
246.77 K | 507.1
249.09 K | 511.5
250 K | 513.6
251.4 K | 516.4
253.72 K | 521
255.92 K | 524.6
256.03 K | 524.6
258.35 K | 529.7
259.52 K | 530.8
260 K | 532.3
260.9 K | 534.6
262.9 K | 537.3
262.99 K | 536.3
265.31 K | 542.1
266.27 K | 542.9
267.63 K | 546.6
269.63 K | 548.4
269.94 K | 551.7
270 K | 550.2
271.74 K | 553.4
272.99 K | 555.5
274.21 K | 556.6
276.35 K | 562.2
276.54 K | 562
278.86 K | 565.7
279.7 K | 568.4
280 K | 568.6
281.15 K | 570.9
283.05 K | 574.7
283.4 K | 575.9
285.69 K | 580.8
286.39 K | 581.4
287.93 K | 584.1
289.74 K | 587.6
290 K | 588.2
290.2 K | 587.9
292.47 K | 592.6
293.07 K | 594.1
294.75 K | 598.5
296.41 K | 600.8
297.02 K | 602.8
298.15 K | 604.8
299.28 K | 607.2
299.74 K | 606.1
300 K | 608.6
301.54 K | 611.3
303.07 K | 615.7
303.8 K | 617.2
306.05 K | 621.4
306.4 K | 622.2
308.26 K | 624.1
309.65 K | 627.8
310 K | 628.6
310.51 K | 629.5
312.76 K | 633
312.99 K | 634.1
315.01 K | 636.6
316.33 K | 639.9
317.25 K | 644.1
319.5 K | 647.2
319.67 K | 646.8
320 K | 647.5
321.75 K | 651.6
323.01 K | 652.2
324 K | 655.2
326.24 K | 660
326.36 K | 659.5
328.49 K | 664.4
329.71 K | 665.6
330 K | 666.6
330.74 K | 670
332.99 K | 672.4
333.06 K | 673.1
335.24 K | 679.6
336.41 K | 679.8
337.49 K | 684.3
339.74 K | 691.4
339.75 K | 688.9
340 K | 691.3
341.99 K | 697.1
343.1 K | 701.5
346 K | 713.9
346.44 K | 717.2
